From patent US20140336182A1, “Aurora Kinase Modulators and Method of Use” (Amgen Inc., priority 2013, published 2014)
Like-named read-outs stand apart in the source and are kept apart here.

Legend:
AuroraB = target: T1, AuroraB (Homo sapiens, UniProt Q96GD4); assay: AuroraB Homogeneous Time Resolved Fluorescent (HTRF) kinase assay; type: biochemical; conditions: average; read-out: AurB_IC50_IP (uM Avg)
T1 construct: 20 μL of AuroraB FL H is for a final volume of 41 μL; His

HeLa cells = assay: HeLa cell 24 hr ploidy assay (DNA content); type: cell-based; conditions: 4N ploidy, average, read-out: 24h_4NPloidy EC50_IP (uM Avg)
How it was run: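 HeLa cells (1×10^4/well, MEM+10% FBS) cultured 24 h, treated with serially diluted compounds (0.25% DMSO final), then fixed, permeabilized and stained with Hoechst 33342 (0.5 ug/ml). Imaging quantified % 4N and >4N cells; EC50 IP and EC50 transit derived from dose curves.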

AuroraA-TPX2 = target: T2, AuroraA-TPX2 (Homo sapiens, UniProt O14965); assay: AuroraA-TPX2 Homogeneous Time Resolved Fluorescent (HTRF) kinase assay
T2 sequence (O14965 133-383 limits assumed): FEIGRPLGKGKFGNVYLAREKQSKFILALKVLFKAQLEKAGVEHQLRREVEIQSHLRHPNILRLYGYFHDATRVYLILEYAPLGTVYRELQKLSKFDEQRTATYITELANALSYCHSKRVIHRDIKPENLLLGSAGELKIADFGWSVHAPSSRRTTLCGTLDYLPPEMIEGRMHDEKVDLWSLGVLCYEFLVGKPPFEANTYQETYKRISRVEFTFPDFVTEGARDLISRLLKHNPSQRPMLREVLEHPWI
T2 sequence (Q9ULW0 1-43 partner limits assumed): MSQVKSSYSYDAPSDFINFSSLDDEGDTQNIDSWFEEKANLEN

[1] = Solubility in DMSO (observation in the synthesis); type: physicochemical; conditions: DMSO at rt
Experimental: The reaction was cooled to rt. Hexane was added to induce the product to precipitate out of the reaction mixture. The resulting red solid was filtered with an aid of hexane. LCMS confirmed that the solid was the product. The product was purified by performing a column chromatography on silica gel using 60:40 CH2Cl2:(90:10:1 CH2Cl2:MeOH:NH4OH). Yellow solid was obtained. LCMS confirmed product. […] MS Calcd for […]: [M]=472. Found: [M+H]=473.

[2] = system: HCT116 xenografts, a human colon carcinoma model; assay: HCT116 xenograft model, tumor growth inhibition; type: in vivo, athymic nude mice; conditions: mice, p.o.
Experimental: Compounds of the present invention were evaluated in HCT116 xenografts, a human colon carcinoma model. […] These cells were grown as subcutaneous xenografts in female HSD (Harlan Sprague Dawley) athymic nude mice. Mice were implanted subcutaneously with 2×10^6 cells in matrigel on day 0. Treatment was initiated on day 10 with compounds of the invention at the indicated dosage p.o for 2 consecutive-days per week (intermittent schedule, such as 2 days on—5 days off) or 7-days (continuous schedule) per week, for a selected number of weeks. For example, in one study, animals were dosed with selected compound samples BID on an intermittent dosing paradigm of two days on and then 5 days off per week, for four weeks (four dosing cycles) at 15, 7.5, and 3.75 mg/kg. Tumor growth inhibition and body weights were measured throughout the study and compared to the vehicle control group. All groups were provided nutritional supplements on a daily basis throughout the study to maintain body weight. Terminal neutrophil counts were taken at the end of this study. Measures were made by ANOVA followed by Scheffe post hoc test using StatView software v5.0.1.
10 Flasks containing a total of 7.68×10^8 HCT 116 tumor cells were harvested for tumor cell implantation. HCT 116 cells were re-suspended to a cell concentration of about 2×10^7 cells/ml in serum-free McCoys 5A media+50% matrigel. Cell viability was measured to be about 99.3%.
Female Athymic Nude mice approximately 14 weeks of age (Harlan Sprague Dawley) were used for the experiment. […] On Day 9, tumor-bearing mice were measured and randomized into five groups (n=10). […] During the dosing period, mouse tumor volumes were measured with a digital caliper and weighed twice per week. Tumor volumes were calculated as follows: Tumor Volume (mm^3)=[(W^2 X L)/2] where width (W) is defined as the smaller of the 2 measurements and length (L) is defined as the larger of the 2 measurements.

[3] = read-out: AurA_IC50_IP (uM Avg), average

T1 sequence (Q96GD4 whole entry): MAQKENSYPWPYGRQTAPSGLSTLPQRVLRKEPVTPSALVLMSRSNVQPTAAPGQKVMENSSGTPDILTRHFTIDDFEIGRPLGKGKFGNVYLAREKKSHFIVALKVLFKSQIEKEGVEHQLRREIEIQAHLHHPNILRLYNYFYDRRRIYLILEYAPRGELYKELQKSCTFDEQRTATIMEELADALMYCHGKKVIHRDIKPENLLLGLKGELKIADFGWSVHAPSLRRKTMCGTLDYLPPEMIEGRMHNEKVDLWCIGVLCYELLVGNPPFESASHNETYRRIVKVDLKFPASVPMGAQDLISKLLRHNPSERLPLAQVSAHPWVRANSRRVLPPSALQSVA

| IC50 (AuroraB) [µM] | IC50 (AuroraA-TPX2; [3]) [µM] | EC50 (HeLa cells; Homo sapiens, HeLa, HeLa cells) [µM] | Compound | further results |
| --- | --- | --- | --- | --- |
| 0.01 | 0.013 |  | 4-(4,5-dimethylthiophen-2-yl)-N-(4-(7-methoxy-1,5-naphthyridin-4-yloxy)phenyl)phthalazin-1-amine [Example 34] | EC50 (HeLa cells; HeLa cells): 0.062 µM |
|  |  |  | COc1cnc2c(Nc3cnc(Nc4nnc(-c5ccccc5)c5ccccc45)nc3)ccnc2c1 [Example 36, N^5-(7-Methoxy-1,5-naphthyridin-4-yl)-N^2-(4-phenylphthalazin-1-yl)pyrimidine-2,5-diamine] | EC50 (HeLa cells; Homo sapiens, HeLa): 0.326 µM; solubility in DMSO [1]: slightly soluble |
| 0.003 | 0.153 | 0.105 | COc1ccc2c(Cc3ccc(Nc4nnc(-c5ccccc5)c5ccccc45)cc3)ccnc2c1 [Example 53, N-(4-((7-methoxyquinolin-4-yl)methyl)phenyl)-4-phenylphthalazin-1-amine] |  |
|  |  |  | COc1cnc2c(Oc3ccc(Nc4nnc(-c5ccc(Cl)cc5)c5ccccc45)cc3)ccnc2c1 [Example 160, 4-(4-chlorophenyl)-N-(4-((7-(methyloxy)-1,5-naphthyridin-4-yl)oxy)phenyl)-1-phthalazinamine] | EC50 (HeLa cells; Homo sapiens, HeLa): 0.005 µM; inhibition of tumor growth ([2]; 3.75 mg/kg 2-day dosing scheduling QD): 86% |
|  |  | 0.006 | COc1cnc2c(Oc3ccc(Nc4nnc(-c5ccc6c(c5)OCO6)c5ccccc45)cc3)ccnc2c1 [Example 165, 4-(1,3-benzodioxol-5-yl)-N-(4-((7-(methyloxy)-1,5-naphthyridin-4-yl)oxy)phenyl)-1-phthalazinamine] | inhibition of tumor growth ([2]; 2.5 mg/kg 2-day dosing scheduling BID): 63% |
|  |  | 0.005 | COc1cnc2c(Sc3ccc(Nc4nnc(-c5ccccc5)c5ccccc45)cc3)ccnc2c1 [Example 207, N-(4-((7-(methyloxy)-1,5-naphthyridin-4-yl)thio)phenyl)-4-phenyl-1-phthalazinamine] | inhibition of tumor growth ([2]; 5.0 mg/kg 2-day dosing scheduling QD): 67% |
| 0.003 |  | 0.04 | Fc1cc(Nc2nnc(-c3ccc(Cl)cc3)c3ccccc23)ccc1Oc1ccnc2ccccc12 [compound 244] | IC50 (AuroraA-TPX2): 0.048 µM |
| 0.017 |  | 0.004 | COc1cnc2c(Sc3ccc(Nc4nnc(N5CCC(OC)CC5)c5ccccc45)cc3)ccnc2c1 [compound 520] | IC50 (AuroraA-TPX2): 0.027 µM |
| 0.02 | 0.176 |  | N-(5-(7-methoxy-1,5-naphthyridin-4-yloxy)pyridin-2-yl)-4-phenylphthalazin-1-amine [Example 54] | EC50 (HeLa cells; HeLa cells): 0.028 µM |
